According to PubChem BioAssay (NCI):
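Each compound was tested at five concentrations against cells in 96-well plates for 48 hours. GI50 marks 50% less growth. The concentration for full growth arrest is given as TGI.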

Tests used:
Experiment in all cases: DTP human tumour cell line panel, 48 h
OVCAR-4 ovarian = test system: OVCAR-4 ovarian
LOX IMVI melanoma = test system: LOX IMVI melanoma
CCRF-CEM leukemia = test system: CCRF-CEM leukemia
K-562 leukemia = test system: K-562 leukemia
A549 NSCLC = test system: A549 NSCLC
HS 578T breast = test system: HS 578T breast
UACC-62 melanoma = test system: UACC-62 melanoma
OVCAR-3 ovarian = test system: OVCAR-3 ovarian
HL-60(TB) leukemia = test system: HL-60(TB) leukemia
OVCAR-8 ovarian = test system: OVCAR-8 ovarian
RPMI-8226 leukemia = test system: RPMI-8226 leukemia
SF-539 CNS = test system: SF-539 CNS
786-0 renal = test system: 786-0 renal
NCI-H460 lung = test system: NCI-H460 lung
MDA-MB-231 breast = test system: MDA-MB-231 breast
U251 CNS = test system: U251 CNS
SF-295 CNS = test system: SF-295 CNS
A498 renal = test system: A498 renal
MOLT-4 leukemia = test system: MOLT-4 leukemia
NCI-H226 lung = test system: NCI-H226 lung
MALME-3M melanoma = test system: MALME-3M melanoma
SNB-75 CNS = test system: SNB-75 CNS
SK-MEL-5 melanoma = test system: SK-MEL-5 melanoma
NCI-H522 lung = test system: NCI-H522 lung
SK-MEL-28 melanoma = test system: SK-MEL-28 melanoma
RXF 393 renal = test system: RXF 393 renal
IGROV1 ovarian = test system: IGROV1 ovarian
UACC-257 melanoma = test system: UACC-257 melanoma
HOP-92 NSCLC = test system: HOP-92 NSCLC
HT29 colon = test system: HT29 colon
SN12C renal = test system: SN12C renal
SR leukemia = test system: SR leukemia
HOP-62 NSCLC = test system: HOP-62 NSCLC
SW-620 colon = test system: SW-620 colon
UO-31 renal = test system: UO-31 renal
HCT-116 colon = test system: HCT-116 colon
TK-10 renal = test system: TK-10 renal
ACHN renal = test system: ACHN renal
COLO 205 colon = test system: COLO 205 colon
MCF7 breast = test system: MCF7 breast
T-47D breast = test system: T-47D breast
HCT-15 colon = test system: HCT-15 colon
DU-145 prostate = test system: DU-145 prostate
SNB-19 CNS = test system: SNB-19 CNS
OVCAR-5 ovarian = test system: OVCAR-5 ovarian
SF-268 CNS = test system: SF-268 CNS
KM12 colon = test system: KM12 colon
M14 melanoma = test system: M14 melanoma
SK-OV-3 ovarian = test system: SK-OV-3 ovarian
CAKI-1 renal = test system: CAKI-1 renal
NCI/ADR-RES ovarian = test system: NCI/ADR-RES ovarian
MDA-MB-435 = test system: MDA-MB-435
HCC-2998 colon = test system: HCC-2998 colon
NCI-H23 lung = test system: NCI-H23 lung
BT-549 breast = test system: BT-549 breast
SK-MEL-2 melanoma = test system: SK-MEL-2 melanoma
PC-3 prostate = test system: PC-3 prostate
EKVX NSCLC = test system: EKVX NSCLC

O=C(Nc1nc(-c2ccc(Cl)cc2)cs1)c1cc(O)c(O)c(O)c1
GI50 (OVCAR-4 ovarian): 142 µM | TGI (OVCAR-4 ovarian): 2490 µM | GI50 (LOX IMVI melanoma): 174 µM | TGI (LOX IMVI melanoma): 810 µM | GI50 (CCRF-CEM leukemia): 79 µM | TGI (CCRF-CEM leukemia): 760 µM | GI50 (K-562 leukemia): 167 µM | TGI (K-562 leukemia): > 5000 µM | GI50 (A549 NSCLC): 276 µM | TGI (A549 NSCLC): > 5000 µM | GI50 (HS 578T breast): 479 µM | TGI (HS 578T breast): > 5000 µM | GI50 (UACC-62 melanoma): 158 µM | TGI (UACC-62 melanoma): 958 µM | GI50 (OVCAR-3 ovarian): 245 µM | TGI (OVCAR-3 ovarian): 1080 µM | GI50 (HL-60(TB) leukemia): 176 µM | TGI (HL-60(TB) leukemia): 907 µM | GI50 (OVCAR-8 ovarian): 150 µM | TGI (OVCAR-8 ovarian): > 5000 µM | GI50 (RPMI-8226 leukemia): 197 µM | TGI (RPMI-8226 leukemia): 1680 µM | GI50 (SF-539 CNS): 173 µM | TGI (SF-539 CNS): 843 µM | GI50 (786-0 renal): 218 µM | TGI (786-0 renal): 1020 µM | GI50 (NCI-H460 lung): 181 µM | TGI (NCI-H460 lung): 964 µM | GI50 (MDA-MB-231 breast): 141 µM | TGI (MDA-MB-231 breast): 3150 µM | GI50 (U251 CNS): 156 µM | TGI (U251 CNS): 1200 µM | GI50 (SF-295 CNS): 544 µM | TGI (SF-295 CNS): 3280 µM | GI50 (A498 renal): 927 µM | TGI (A498 renal): 3480 µM | GI50 (MOLT-4 leukemia): 130 µM | TGI (MOLT-4 leukemia): 840 µM | GI50 (NCI-H226 lung): 663 µM | TGI (NCI-H226 lung): 2570 µM | GI50 (MALME-3M melanoma): 266 µM | TGI (MALME-3M melanoma): 2980 µM | GI50 (SNB-75 CNS): 162 µM | TGI (SNB-75 CNS): 3990 µM | GI50 (SK-MEL-5 melanoma): 194 µM | TGI (SK-MEL-5 melanoma): 881 µM | GI50 (NCI-H522 lung): 21.4 µM | TGI (NCI-H522 lung): 138 µM | GI50 (SK-MEL-28 melanoma): 303 µM | TGI (SK-MEL-28 melanoma): > 5000 µM | GI50 (RXF 393 renal): 166 µM | TGI (RXF 393 renal): 923 µM | GI50 (IGROV1 ovarian): 183 µM | TGI (IGROV1 ovarian): 939 µM | GI50 (UACC-257 melanoma): 278 µM | TGI (UACC-257 melanoma): 2490 µM | GI50 (HOP-92 NSCLC): 115 µM | TGI (HOP-92 NSCLC): 1050 µM | GI50 (HT29 colon): 572 µM | TGI (HT29 colon): 2250 µM | GI50 (SN12C renal): 172 µM | TGI (SN12C renal): 3780 µM | GI50 (SR leukemia): 96.3 µM | TGI (SR leukemia): 1060 µM | GI50 (HOP-62 NSCLC): 255 µM | TGI (HOP-62 NSCLC): 1880 µM | GI50 (SW-620 colon): 168 µM | TGI (SW-620 colon): > 5000 µM | GI50 (UO-31 renal): 50.6 µM | TGI (UO-31 renal): 569 µM | GI50 (HCT-116 colon): 195 µM | TGI (HCT-116 colon): 922 µM | GI50 (TK-10 renal): 207 µM | TGI (TK-10 renal): 1470 µM | GI50 (ACHN renal): 113 µM | TGI (ACHN renal): 1140 µM | GI50 (COLO 205 colon): 584 µM | TGI (COLO 205 colon): 1810 µM | GI50 (MCF7 breast): 349 µM | TGI (MCF7 breast): > 5000 µM | GI50 (T-47D breast): 125 µM | TGI (T-47D breast): 671 µM | GI50 (HCT-15 colon): 150 µM | TGI (HCT-15 colon): > 5000 µM | GI50 (DU-145 prostate): 247 µM | TGI (DU-145 prostate): 1840 µM | GI50 (SNB-19 CNS): 144 µM | TGI (SNB-19 CNS): > 5000 µM | GI50 (OVCAR-5 ovarian): 915 µM | TGI (OVCAR-5 ovarian): > 5000 µM | GI50 (SF-268 CNS): 146 µM | TGI (SF-268 CNS): 1400 µM | GI50 (KM12 colon): 315 µM | TGI (KM12 colon): 1460 µM | GI50 (M14 melanoma): 244 µM | TGI (M14 melanoma): 4610 µM | GI50 (SK-OV-3 ovarian): 538 µM | TGI (SK-OV-3 ovarian): 3420 µM | GI50 (CAKI-1 renal): 115 µM | TGI (CAKI-1 renal): 660 µM | GI50 (NCI/ADR-RES ovarian): 183 µM | TGI (NCI/ADR-RES ovarian): > 5000 µM | GI50 (MDA-MB-435): 266 µM | TGI (MDA-MB-435): 2980 µM | GI50 (HCC-2998 colon): 700 µM | TGI (HCC-2998 colon): 2080 µM | GI50 (NCI-H23 lung): 292 µM | TGI (NCI-H23 lung): 3030 µM | GI50 (BT-549 breast): 252 µM | TGI (BT-549 breast): 1870 µM

CC(Br)CN1CCOCC1 (stereo not drawn)
TGI (LOX IMVI melanoma): > 100 µM | TGI (K-562 leukemia): > 100 µM | TGI (A549 NSCLC): > 100 µM | TGI (HS 578T breast): > 100 µM | TGI (UACC-62 melanoma): > 100 µM | TGI (SK-MEL-2 melanoma): > 100 µM | TGI (OVCAR-3 ovarian): > 100 µM | TGI (HL-60(TB) leukemia): 51.8 µM | TGI (OVCAR-8 ovarian): > 100 µM | TGI (RPMI-8226 leukemia): > 100 µM | TGI (SF-539 CNS): > 100 µM | TGI (786-0 renal): > 100 µM | TGI (NCI-H460 lung): > 100 µM | TGI (MDA-MB-231 breast): > 100 µM | TGI (U251 CNS): > 100 µM | TGI (A498 renal): > 100 µM | TGI (NCI-H226 lung): > 100 µM | TGI (MALME-3M melanoma): > 100 µM | TGI (SK-MEL-5 melanoma): > 100 µM | TGI (NCI-H522 lung): > 100 µM | TGI (SK-MEL-28 melanoma): > 100 µM | TGI (RXF 393 renal): > 100 µM | TGI (IGROV1 ovarian): > 100 µM | TGI (UACC-257 melanoma): > 100 µM | TGI (HOP-92 NSCLC): > 100 µM | TGI (HT29 colon): > 100 µM | TGI (SN12C renal): > 100 µM | TGI (PC-3 prostate): > 100 µM | TGI (SR leukemia): > 100 µM | TGI (HOP-62 NSCLC): > 100 µM | TGI (EKVX NSCLC): > 100 µM | TGI (SW-620 colon): > 100 µM | TGI (UO-31 renal): > 100 µM | TGI (HCT-116 colon): > 100 µM | TGI (TK-10 renal): > 100 µM | TGI (ACHN renal): > 100 µM | TGI (COLO 205 colon): > 100 µM | TGI (MCF7 breast): > 100 µM | TGI (T-47D breast): > 100 µM | TGI (HCT-15 colon): > 100 µM | TGI (DU-145 prostate): > 100 µM | TGI (SNB-19 CNS): > 100 µM | TGI (OVCAR-5 ovarian): > 100 µM | TGI (SF-268 CNS): > 100 µM | TGI (KM12 colon): > 100 µM | TGI (M14 melanoma): > 100 µM | TGI (SK-OV-3 ovarian): > 100 µM | TGI (CAKI-1 renal): > 100 µM | TGI (NCI/ADR-RES ovarian): > 100 µM | TGI (MDA-MB-435): > 100 µM | TGI (HCC-2998 colon): > 100 µM | TGI (NCI-H23 lung): > 100 µM | TGI (BT-549 breast): > 100 µM
